The subject of data set [1] is K562 cells. Briefly: K562 cell viability assay (resazurin). In kind it is cell-based, human. The settings on record: for CC50: Homo sapiens, K562 cells, concentration-response curve. A general note: Resazurin is reduced to fluorescent resorufin, in cell work by metabolically active cells.
Procedure: The assays were performed on two cell lines, as described below. […] The K562 strain was grown in RPMI-1640 medium (R8758, Sigma-Aldrich, St. Louis, MO, USA) according to the provider’s recommendations and the literature [27, 28]. […] The media were supplemented with 10% fetal bovine serum (FBS) and 50 μg/mL gentamicin. All cell lines were grown in a cell culture bottle with a 0.22 μm pore membrane filter on the lid, allowing the circulation of CO2. […] All strains were maintained at 35 °C, at 5% CO2.
For the evaluation of the cytotoxic actions of the synthesized compounds, resazurin (Sigma-Aldrich) was used at a concentration of 0.1 mg/mL.
Standardization of this assay was not carried out in this project; thus, the following ideal values were used for the execution of the experiment: quantity of cells of 2 × 10^4 cell/mL, incubation time with the compounds of 48 h, incubation time with resazurin of one hour and DMSO used within the limit of 0.5%. As the cells grew in suspension, a long incubation period for adherence was not necessary. After plating, the cells were incubated for one hour, and then the prepared compounds were added and incubated for 47 h. After this period, resazurin was added at a final concentration per well of 0.01 mg/mL, and the first fluorescence reading (λex = 560 nm; λex = 590 nm) (zero time) was performed immediately using FlexStation 3 microplates (Molecular Devices). After the first reading, the plate was returned to the incubator, and after one hour, the second reading was performed, completing 48 h of incubation with the compounds. The compounds were solubilized in DMSO (Sigma-Aldrich) at concentrations ranging from 16.66 to 50 mM and maintained at −30 °C.
Analyses of the data obtained and graph construction were performed with the aid of GraphPad Prism 6 software (GraphPad Software Inc., San Diego, CA, USA).
Data set [2] can be described thus: WSS-1 cell viability assay (resazurin). In kind it is cell-based. The settings on record: human, WSS-1 cells (renal epithelium, adenovirus 5 transformed), concentration-response curve.
Procedure: The assays were performed on two cell lines, as described below. […] WSS-1 (ATCC® CRL2029 ™): the cells used in this work were a healthy human cell line obtained from the renal epithelium of a fetus and transformed with adenovirus 5 DNA (ATCC: The Global Bioresource Center c). […] WSS-1 cells were cultured in high-glucose DMEM (Vitrocell) according to the provider’s recommendations (ATCC: The Global Bioresource Center c). The media were supplemented with 10% fetal bovine serum (FBS) and 50 μg/mL gentamicin. All cell lines were grown in a cell culture bottle with a 0.22 μm pore membrane filter on the lid, allowing the circulation of CO2. WSS-1 cells grew adherently, while cells of the K562 strain grew in suspension. All strains were maintained at 35 °C, at 5% CO2. In addition, all cell lines were routinely evaluated before freezing for storage in liquid nitrogen in the vapor phase for the detection of mycoplasma.
For the evaluation of the cytotoxic actions of the synthesized compounds, resazurin (Sigma-Aldrich) was used at a concentration of 0.1 mg/mL. The resazurin salt (Alamar Blue®) has a blue, nonfluorescent color and can be reduced to resorufin, which is pink and highly fluorescent. This process is an indicator of cell proliferation and fluorescent/colorimetric cytotoxicity with redox properties.
The first step of this assay consisted of plating the cells, with 5 × 10^4 cells per well. In this experiment, black plates with transparent bottoms and 96 wells (Greiner Bio-One) were used, and after plating, the cells were returned to the incubator for a period of approximately 20 h to allow growth and cell adhesion. The next step consisted of adding the obtained compounds, followed by incubation for a period of 46 h. Then, resazurin was added at a final concentration per well of 0.01 mg/mL, and immediately, the first fluorescence reading (λex = 560 nm; λex = 590 nm) (zero time) was performed using a FlexStation 3 microplate reader (Molecular Devices). After the first reading, the plate was returned to the incubator, and after two hours, the second reading was performed, completing 48 h of incubation with the compounds. As a negative control, cells treated with DMSO at a concentration of 0.5% instead of the obtained compounds were used. […] Preliminary screening of the compounds was carried out at fixed concentrations (1 and 10 μM) in triplicate. […] It should be noted that each experiment was carried out at least in duplicate. The fluorescence value at time zero (time immediately after the addition of resazurin) in each well was subtracted from the values obtained after two hours of incubation with resazurin. The average value with zero-time subtraction was used as 100% cell viability and was applied to calculate the percentage of cell viability in each well. […]
The nature of data set [3]: Solubility observed during concentration-response curve. In kind it is physicochemical. As to conditions: in the cell assay concentration-response curve. The protocol: Subsequently, a concentration-response curve was constructed for compounds 2g and 2h.
The mark [4] stands for this setting: 48 h incubation, resazurin, read-out: CC50 K562.
The mark [5] stands for this setting: unit inferred, read-out: CC50 K562 (Figure 5).
Where [6] appears, read: WSS-1 cells, unit inferred, read-out: CC50 WSS1 (Figure 5).
[7] abbreviates: WSS-1 healthy cells, 48 h incubation, resazurin, read-out: CC50 WSS-1.

Like-named read-outs stand apart in the source and are kept apart here.

As to `CCOC(=O)c1cnc2ccccc2c1Nc1ccc(C)c(Nc2nccc(-c3cccnc3)n2)c1` [2e, Ethyl 4-((4-methyl-3-((4-(pyridin-3-yl)pyrimidin-2-yl)amino)phenyl)amino)quinoline-3-carboxylate], the melting point was 208 to 211 °C.

On to `Cc1ccc(Nc2ccnc3ccccc23)cc1Nc1nccc(-c2cccnc2)n1` [2g, 4-Methyl-N^3-(4-(pyridin-3-yl)pyrimidin-2-yl)-N^1-(quinolin-4-yl)benzene-1,3-diamine], for which the melting point fell in the range of 153 to 157 °C. Besides, in data set [1] (setting [4]), the CC50 worked out at 900 nM. Besides, in data set [1] (setting [5]), the 50% cytotoxic concentration (CC50) was determined as 874 nM. Further, the “percentage of cell viability inhibition” value in data set [1] (K562 screening at 10 µM (Figure 4)) is “higher percentage of cell viability inhibition than IMT and BST”. For the same compound, the half-maximal cytotoxic concentration (CC50) at 48 h in data set [2] (setting [6]) amounted to 215 nM. Moreover, the CC50 at 48 h in data set [2] (setting [7]) is 200 nM.

Compound `Cc1ccc(Nc2ccc3cccc(Cl)c3n2)cc1Nc1nccc(-c2cccnc2)n1` [2h, N^1-(8-Chloroquinolin-2-yl)-4-methyl-N^3-(4-(pyridin-3-yl)pyrimidin-2-yl)benzene-1,3-diamine] gave a melting point of 237 to 239 °C. The CC50 in data set [1] (setting [4]) came out at 6200 nM. Besides, in data set [1] (setting [5]), the CC50 is 6250 nM. For the same compound, the CC50 at 48 h in data set [2] (setting [6]) was 4920 nM. Also, the CC50 at 48 h in data set [2] (setting [7]) is 4900 nM. For the same compound, in data set [3], the solubility entry is given as “low solubility at concentrations above 30 μM”.

In turn, `Cc1ccc(-n2cc(COc3ccnc4cc(Cl)ccc34)nn2)cc1Nc1nccc(-c2cccnc2)n1` [3a, N-(5-(4-(((7-Chloroquinolin-4-yl)oxy)methyl)-1H-1,2,3-triazol-1-yl)-2-methylphenyl)-4-(pyridin-3-yl)pyrimidin-2-amine] displayed a melting point of 187 to 188 °C.

`Cc1ccc(-n2cc(CCCOc3ccnc4cc(Cl)ccc34)nn2)cc1Nc1nccc(-c2cccnc2)n1` [3b, N-(5-(4-(3-((7-Chloroquinolin-4-yl)oxy)propyl)-1H-1,2,3-triazol-1-yl)-2-methylphenyl)-4-(pyridin-3-yl)pyrimidin-2-amine] registered a melting point of 107 to 108 °C.

In the case of `Cc1ccc(NC(=O)Cn2cc(COc3ccnc4cc(Cl)ccc34)nn2)cc1Nc1nccc(-c2cccnc2)n1` [4a, 2-(4-(((7-Chloroquinolin-4-yl)oxy)methyl)-1H-1,2,3-triazol-1-yl)-N-(4-methyl-3-((4-(pyridin-3-yl)pyrimidin-2-yl)amino)phenyl)acetamide], the melting point was 245 to 247 °C.

Turning to `Cc1ccc(NC(=O)Cn2cc(CCCOc3ccnc4cc(Cl)ccc34)nn2)cc1Nc1nccc(-c2cccnc2)n1` [4b, 2-(4-(3-((7-Chloroquinolin-4-yl)oxy)propyl)-1H-1,2,3-triazol-1-yl)-N-(4-methyl-3-((4-(pyridin-3-yl)pyrimidin-2-yl)amino)phenyl)acetamide], the melting point was 145 to 146 °C.

`Cc1ccc(NC(=O)c2ccc(CN3CCN(C)CC3)cc2)cc1Nc1nccc(-c2cccnc2)n1` [IMT, Imatinib, reference compound]: in data set [1] (setting [4]), the CC50 stood at 80 nM.

A word on the melting point: it is the temperature, or range, at which the solid turns liquid. The CC50 is the concentration at which the toxic effect on the cells reaches its halfway point.

These data come from paper PMC8950477 (Pharmaceuticals, 2022).
